From a melting point compilation (Tetko et al.; mined from patent text by program, amines drawn as free bases though some values may be those of a salt)

SMILES	melting point [°C]
CC(=O)Oc1ccc(C(=O)N2CCNC2=O)cc1OC(C)=O	154 to 156
COc1ccc(C(=O)Nc2ccccc2)cc1NC(=S)Nc1cccc(Cl)c1	165 to 168
Cc1ccccc1[C@H]1O[C@H](CC(=O)O)C(=O)N(CC(C)C)c2ccccc21 (relative stereo)	192 to 195
CCNS(=O)(=O)/C=C/c1ccc2[nH]cc(C3CCN(Cc4ccccc4)CC3)c2c1	178 to 180
OC1CCN(c2nc(-c3ccccc3)cc(-c3ccc4c(c3)OCO4)n2)CC1	120 to 122
NS(=O)(=O)Cc1cccc(NC(=O)c2cnn3c(C(F)(F)F)cc(-c4ccc(C(F)(F)F)cc4)nc23)c1	298
CCOc1ccc2c(c1)c(I)c1n2CCC1	128 to 129
O=C1NCc2cc(C(=O)CCCl)ccc2N1	> 270
CCOC(=O)CNC1=C(C(=O)c2cccnc2Cl)CCC1	114 to 118
CC(=O)Oc1ccc2c(c1)CCCO2	76 to 77
CCOC(=O)Cc1nn(CC2Nc3cc(C(F)(F)F)ccc3S2)c(=O)c2ccccc12 (configuration not stated)	134
CN1CCC(=C2c3ccccc3-c3cocc3-c3ccccc32)CC1	147 to 148
CCOC(=O)C1=C(C)Nc2nc(N)nc(N3CCOCC3)c2C1c1cccc([N+](=O)[O-])c1 (configuration not stated)	208
COc1cc(I)ccc1C(=O)O	144 to 146
CCCNC(=O)c1ccc(Nc2nc(OCC3CCCCC3)c3nc[nH]c3n2)cc1	226 to 228
CCCCc1ncc(/C=C(\Cc2cccs2)c2nnn[nH]2)n1Cc1ccc(-c2nnn[nH]2)cc1	227 to 230
COc1ccc2ccc(-n3nc(OCCN4CCOCC4)cc3C)cc2c1	143 to 147

SMILES	melting point [°C]
CCOC(=O)c1cnc(C(=O)O)cn1	150 to 153
COc1c(Cl)cc(F)cc1C=O	59 to 62
Nc1ccc2c(c1)NC(=O)C(CCCN1CCN(c3ccc(F)cc3)CC1)O2 (configuration not stated)	158 to 159
CC(=O)Nc1ccc(OC2SCC(OC(C)=O)C(OC(C)=O)C2OC(C)=O)cn1 (configuration not stated)	132 to 133
O=c1[nH]ncc(Cl)c1-c1ccccc1	193 to 195
FC(F)(F)CNC(=S)Nc1cccc(COC(=S)NCC(F)(F)F)n1	173 to 175
COc1ccc(-c2ccccc2C#N)cc1	82 to 83
COC(=O)c1c(NC(C)=O)sc2c1CCC(c1ccccc1)C2 (configuration not stated)	116 to 117
CCNC(=O)COc1cc2c(c(Cl)c1Cl)C(=O)C(C)(C(C)C)C2 (configuration not stated)	146
COC(=O)C(=O)c1ccc(OCCOC2CCc3ccccc3C2)cc1 (configuration not stated)	86 to 87
CCOC(=O)c1c(N2CCN(C(=O)c3cccs3)CC2)c2cc(Cl)cnc2n(Cc2ccccc2)c1=O	197
CCC1C(C)=NN=C(c2ccccc2)c2ccc(OC)cc21 (configuration not stated)	162 to 163
NC(=O)c1ccc(-c2nc(O)c3c(n2)CCC3)cc1	201
Fc1ccc2[nH]c3c(c2c1)CN(CCCCc1ccncc1)CC3	210 to 212
Cc1cc(SC2=C(O)CC(CCc3ccc(O)cc3)(CCc3ccc(O)cc3)OC2=O)c(C(C)(C)C)cc1OS(=O)(=O)N(C)C	139
CCCCN(c1nc(N2CCOCC2)nc(N(CCCC)C2CC(C)(C)N(OC3CCCCC3)C(C)(C)C2)n1)C1CC(C)(C)N(OC2CCCCC2)C(C)(C)C1	159 to 163
CSc1c2c(nn1C)N(c1c(C)cc(C)cc1C)CCC2	90.3 to 91.7

Next, values leading:

melting point [°C]	SMILES
184 to 185	CC(C)n1c(=O)n(C)c(=O)c2c(S(=O)CCCO)n(Cc3cccc4ccccc34)cc21 (configuration not stated)
114 to 116	COc1ccc(-c2c([N+](=O)[O-])cnc3ccc(Cl)cc23)c(OC)c1OC
85 to 86.5	COC(=O)C=CC(=S)c1ccc(-c2ccccc2)cc1
135 to 136	Cc1cc(OCc2coc(/C=C/c3ccc(OC(F)(F)F)cc3)n2)ccc1CCCCc1cn(C(c2ccccc2)(c2ccccc2)c2ccccc2)nn1
127 to 129	CCCCCCNC(=O)C1=C(C(=O)Nc2cc(OC3CCC(C)C3)c(Cl)cc2F)CCCC1 (configuration not stated)
310 to 312	CCCCCc1nc2ccc(C(=O)O)cc2c(=O)[nH]1
107 to 108	Cc1cc(SC(C)C)c(NC(=O)CCCCCCCSc2nc3ccccc3s2)c(SC(C)C)n1
170 to 173	CCOP(=O)(CC(=O)Nc1c(C(C)C)cccc1C(C)C)c1ccccc1 (configuration not stated)
174 to 176	O=C(O)C(O)C1CCN(Cc2ccccc2)C1 (configuration not stated)
197 to 199	CC1C2C(CON2C)CN1c1c(F)cc2c(=O)c(C(=O)O)cn(C3CC3)c2c1F (configuration not stated)
132 to 135	NS(=O)(=O)c1ccccc1-c1ccno1
260 to 261	COC(=O)c1ccc(C(=O)NCCCCNC(=O)c2ccc(C(=O)OC)cc2)cc1
166 to 168	COC(=O)N1c2cc(F)ccc2NC(=O)C1(C)C
122 to 123	COC(CNc1nc(-c2ccccc2)c2cc(Cl)ccc2n1)OC
144	Cc1nc(C(F)F)c(C(=O)Nc2ccccc2-c2ccc(Cl)cc2)s1
147 to 148	CC(C)(C)OC(=O)NC(CC#N)COc1noc2ccc(Cl)cc12 (configuration not stated)
54 to 55	Brc1cnc(N2CCCC2)c(OCC2CCCC2)n1
84 to 85	COC(=O)c1c2c(c3c(C)c(OC)c(OC)c(OC)c3c1-c1ccc(OC)c(OC)c1)OCOC2=O
87.7	COC(Cn1cncn1)(OC)c1ccc(Cl)cc1Cl

melting point [°C]	SMILES
107	CCOP(=O)(OCC)C(CCc1cc(C)nc2c(C#N)c(-c3ccccc3)nn12)P(=O)(OCC)OCC
161 to 162	CCCNC(=O)CCCCCn1c(COCC)nc2c(N)nc3ccccc3c21
98 to 100	CCC1Cc2c(C)ccc(NNC(=O)OC)c2O1 (configuration not stated)
57	C=CCCc1ccc(C=NN=Cc2ccc(CCC=C)cc2)cc1
136 to 138	COc1cc(-c2nc(N)sc2CCC2CCC(C)(C)CC2)c(OC)cc1C
209	Cc1nc2ccc(Cl)cc2n2c(-c3ccccc3Cl)nnc12
157 to 160	N#Cc1cc(Cn2cncn2)ccc1-c1ccc(OS(N)(=O)=O)cc1
123 to 124	OC(COc1cc(-c2ccccc2)on1)CN1CCOCC1 (configuration not stated)
182	O=c1nc(-c2ccccc2)c2ccccc2n1CC(F)(F)F
181 to 183	N#Cc1ccc(OCCc2c[nH]cn2)cc1
167 to 169	O=C1Cc2ccccc2C(c2ccccc2F)N1 (configuration not stated)
140 to 145	CC12CCC3c4ccc(O)cc4C(O)C(Sc4ccc(Br)cc4)C3C1CCC2O (configuration not stated)
65 to 66	COC(=O)c1c(OC)cc(N(C)C)nc1C
130	O=C(Oc1cccc(C(F)(F)F)c1)n1c2c(c(=O)n(C3CCCCO3)c1=O)CCC2 (configuration not stated)
134 to 135	NC(=O)c1ccc(OCCNCC(O)COc2nccnc2Cl)cc1 (configuration not stated)
103 to 104	CCOC(=O)CCCCCn1c(=O)[nH]c2ccccc2c1=O
135 to 136	COc1cc(CP(=O)(OC)OC)c2c(CP(=O)(OC)OC)cc(OC)cc2c1
136 to 139	CCOC(=O)c1ncn(-c2nc(C)c(Cl)s2)c1S(N)(=O)=O
159	COc1cc(Nc2nccc(-c3nccs3)n2)cc(OC)c1OC
